Series [1] concerns the target T1, AiWssI^ΔN (Achromobacter insuavis, UniProt A0A6J5I893). Kind of series: HTS MU-Ac fluorescence esterase dose-response assay. Type of series: biochemical. The conditions noted are these: MU-Ac as esterase substrate. Here is the method:
Large-scale HTS was conducted at the SPARC BioCentre Drug Discovery (Hospital for Sick Children, Toronto, Canada) with a subset of the Chembridge DIVERset library collection (as well as 135 manually selected compounds based on success against other SGNH enzymes) in a 384-well format. The assay was performed in singlet during the primary screen of the entire compound list and in triplicate for a follow-up confirmatory screen. Reaction setups for both screens were conducted with 50 mM sodium phosphate buffer (pH 6.5), 3 μM AiWssI^ΔN and 0.5 mM MU-Ac (final concentration of 5% [v/v] dimethyl sulfoxide) using a Thermo MultiDrop Combi Reagent Dispenser. The reaction was initiated by the addition of 20 μM of the test compounds using an Echo 550 acoustic dispenser (Labcyte). Fluorescence was monitored with a SynergyNeo microplate reader (BioTek) using excitation and emission wavelengths of 365 and 450 nm, respectively, for approximately 45 min alongside appropriate negative and positive controls. […] The hits remaining after the primary and confirmatory screening were examined further to identify possible PAINS, which could result in false-positive results ([91]). Further refinement of the lead candidates was also conducted by assessing the fluorescence quenching potential of lead compound hits by assaying the quenching potential of different compound concentrations (10.1 μM and/or 50.5 μM) against the fluorescence of 4-methylumbeliferone (247 μM) to reveal any potential false positives that were not actually because of AiWssI^ΔN activity. All fluorescence readings were normalized using the following equation to determine the percentage of quenching ([92]): NormalizedFlouresence=Fobs−μFmin/μFmax−μFminx100% In the aforementioned formula, Fobs is the sample fluorescence value, μFmin is the mean fluorescence value of the negative controls, and μFmax is the mean fluorescence value of the positive controls.
(§1) All inhibitor compounds for confirmatory assays were purchased from Enamine Ltd, with the exception of compound 1 (Santa Cruz Biotechnology, Inc), Compounds 2 and 7 (Molport via Maybridge Ltd and Vitas M Chemical Ltd, respectively) and compound 6 (Mcule, Inc). The dose–response curves were generated using either CDD Vault Analysis Software (Collaborative Drug Discovery, Inc) or GraphPad Prism, version 8.4.3. Inhibition constants (Ki) were calculated using the Cheng–Prusoff equation for competitive inhibition that is calculated using the KM of the uninhibited enzyme, the substrate concentration (S) at which the IC50 values were calculated, and the IC50 value of the inhibitor ([92]): Ki=IC50/(S/KM+1)

Series [2] deals with T1, AiWssI^ΔN. Kind of series: Follow-up standard MU-Ac esterase assay (dose-response). Type of series: biochemical. The conditions noted are these: for IC50: MU-Ac (0.5 mM) as esterase substrate, read-out: Second MU-Ac IC50; for Ki: MU-Ac as esterase substrate, Cheng-Prusoff, competitive inhibition, read-out: Second MU-Ac Ki. Here is the method: (§2) The fluorescence substrate, MU-Ac, was also tested as a substrate of WssI^ΔN for its amenability to the planned high-throughput analyses (see later). Reaction setups were exactly the same as that for pNP-Ac, with the exceptions of the assay buffer (50 mM sodium phosphate, 150 mM NaCl, 1 mM DTT, pH 7), MU-Ac as the acetyl donor (final concentration of 0.5 mM along with 5% [v/v] dimethyl sulfoxide, as this was the solvent for MU-Ac), and the assay was performed in fluorescence compatible microplates (Grenier BioOne) and monitored with excitation and emission wavelengths of 365 and 450 nm, respectively for 60 min.
as §1

In series [3] the target is T1, AiWssI^ΔN. Description: pNP-Ac cleavage in the presence of oligosaccharide acceptors. Type of series: biochemical. The conditions noted are these: 1 mM oligosaccharide, 6 mM pNP-Ac, 2 μM enzyme; for Specific activity of AiWssI^ΔN with acceptor relative to no acceptor control: t test; for Increase in AiWssI^ΔN activity versus reaction without celloacceptors: 30 min, 23 °C. Here is the method: Acetyltransfer by WssI was performed under the same esterase assay protocol outlined previously, but with the addition of cellulose or chitin oligosaccharides (1 mM) as the acceptor in the presence of either pNP-Ac (6 mM) or acetyl-CoA (4 mM) as the acetyl donor ([…]). Assessment of acetyltransfer was first monitored indirectly (absorbance at 405 nm wavelength) by observing differences in pNP liberation rates in the presence and absence of the polysaccharide acceptors. Later to confirm the acetylated products, reactions performed with pNP-Ac and acceptor polysaccharides were subjected to solid-phase extraction of the carbohydrate reaction products followed by detection with MS (as outlined later). Reactions utilizing acetyl-CoA as the donor were subjected to LC–MS analyses. All model fitting and statistical analyses were performed using GraphPad Prism, version 8.4.3.

The subject of series [4] is CC(=O)Oc1ccc([N+](=O)[O-])cc1. Description: O-acetylesterase Michaelis-Menten kinetics. Type of series: biochemical, Achromobacter insuavis. The conditions noted are these: other: AiWssI^ΔN, acetyl donor substrate, pH 7. Here is the method: (§3) The enzymatic rate of the WssI^ΔN proteins was measured using chromogenic assays in a 50 mM sodium phosphate-buffered (pH 7) solution, with WssI^ΔN (3 μM unless specified otherwise) and were initiated by the addition of pNP-Ac to a final concentration of 6 mM (dissolved in 5% [v/v] ethanol). Assay samples and corresponding controls (i.e., containing no WssI^ΔN and/or substrate) were run in quadruplicate, and the progress of the reaction was monitored at 405 nm (Cytation5) for 30 min in 1 min intervals following a 5 s initial linear shake to mix contents thoroughly. These conditions were deemed standard assay conditions for subsequent trials except where modifications are noted. The activity assay to determine optimal pH and buffer type was performed with 2-(N-morpholino)ethanesulfonic acid over pH ranges of 5.5 to 6.5, sodium phosphate for pH 6.5 to 7.5, and Tris for the final range of 7.5 to 9.25. In addition, standard assay conditions were modified by incorporating various inhibitors and common reducing agents to determine effects on WssI^ΔN activity. […] To test the effects of the absence of DTT, trials were conducted where DTT was removed from all purification and dialysis buffers, unless mentioned otherwise. Data are either reported in specific activity as units of esterase activity (i.e., the amount of enzyme required to release 1 μmol of p-nitrophenol per min^−1 per mg of protein^−1) or as percent residual activity when compared with the WssI^ΔN controls (i.e., containing no inhibitors).
as §2
(§4) Kinetic assays were performed using the same standard assay conditions for esterase reactions outlined previously, but with acetyl donor pNP-Ac concentrations ranging from 0 to 10 mM and MU-Ac concentrations between 0 and 8 mM. Michaelis–Menten parameters, such as KM and kcat, were calculated from the kinetic curves according to a nonlinear regression analysis of plots of initial velocity as a function of pNP-Ac or MU-Ac concentration using GraphPad Prism, version 8.4.3 (GraphPad Sofware, Inc).

Series [5] has as its system CC(=O)Oc1ccc2c(C)cc(=O)oc2c1. Description: O-acetylesterase Michaelis-Menten kinetics. The conditions noted are these: other: AiWssI^ΔN, acetyl donor substrate, pH 7. Type of series: biochemical, Achromobacter insuavis. Here is the method:
as §3, §2, §4

Substrate in series [6]: CC(=O)Oc1ccc([N+](=O)[O-])cc1
Kind of series: O-acetylesterase Michaelis-Menten kinetics. It counts as biochemical, Pseudomonas fluorescens. The conditions noted are these: other: PfWssI^ΔN, acetyl donor substrate, pH 7. Here is the method: as §3, §2, §4

Substrate in series [7]: CC(=O)Oc1ccc2c(C)cc(=O)oc2c1
Kind of series: O-acetylesterase Michaelis-Menten kinetics. It counts as biochemical, Pseudomonas fluorescens. The conditions noted are these: other: PfWssI^ΔN, acetyl donor substrate, pH 7. Here is the method: as §3, §2, §4

As a reminder, the IC50 is the point on the concentration scale where inhibition reaches its midpoint. As usually defined, the Ki is a dissociation constant, usually derived from enzyme kinetics or from competition with a known ligand. A word on the Km: it is the substrate concentration at which the rate is half of its maximum. As a reminder, the kcat is the number of substrate molecules converted per active site and unit of time at saturation. What is called kcat/Km is the turnover number divided by the Michaelis constant.

T1 sequence (A0A6J5I893 entry or part of it, stated change not applied): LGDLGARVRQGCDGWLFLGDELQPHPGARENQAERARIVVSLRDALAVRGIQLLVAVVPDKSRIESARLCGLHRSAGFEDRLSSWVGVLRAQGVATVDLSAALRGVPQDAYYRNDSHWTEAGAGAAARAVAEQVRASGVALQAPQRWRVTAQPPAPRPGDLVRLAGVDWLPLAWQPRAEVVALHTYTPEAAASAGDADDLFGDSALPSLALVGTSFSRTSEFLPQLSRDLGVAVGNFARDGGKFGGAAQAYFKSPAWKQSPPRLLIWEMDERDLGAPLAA

For the molecule `CCOC(=O)NC(=O)/C(C#N)=C/c1ccc(N(C)C)cc1` [Compound 2, Ethyl N-[(2E)-2-cyano-2-{[4-(dimethylamino)-phenyl]methylidene}acetyl]carbamate], the IC50 at AiWssI^ΔN [1] amounted to 60.2 µM. For the same molecule, at AiWssI^ΔN [2], the IC50 was determined as 22.6 µM and the inhibition constant (Ki) stood at 12 µM.

`Cn1cccc1/C=C(/C#N)c1nnc(-c2ccccc2)n1C` [Compound 3, (2Z)-3-(1-Methyl-1H-pyrrol-2-yl)-2-(4-methyl-5-phenyl-4H-1,2,4-triazol-3-yl)-prop-2-enenitrile]: the IC50 at AiWssI^ΔN [1] turned out to be 85.3 µM. For the same molecule, at AiWssI^ΔN [2], the IC50 worked out at 41.4 µM and the Ki was 22.1 µM.

Consider `CN1CCN(c2ccc(NC(=O)c3cc4sc(Nc5ccccc5)nc4s3)cn2)CC1` [Compound 4, N-[6-(4-Methylpiperazin-1-yl)pyridin-3-yl]-2-(phenylamino)thieno[2,3-days][1,3]thiazole-5-carboxamide], for which, at AiWssI^ΔN [1], the IC50 came to 55.3 µM.

Regarding `O=C1NC(=O)c2ccccc2/C1=C\C=Cc1ccco1` [Compound 5, (4E)-4-[3-(Furan-2-yl)prop-2-en-1-ylidene]-1,2,3,4-tetrahydroisoquino-line-1,3-dione], on AiWssI^ΔN [1], the IC50 turned out to be 51.9 µM.

As for `CN1/C(=C/C(=O)Cn2cc(S(=O)(=O)N3CCCC3)ccc2=O)C(C)(C)c2ccccc21` [Compound 6, 1-{2-Oxo-3-[(2E)-1,3,3-trimethyl-2,3-dihydro-1H-indol-2-ylidene]propyl}-5-(pyrrolidine-1-sulfonyl)-1,2-dihydropyridin-2-one], the concentration for half-maximal inhibition (IC50) on AiWssI^ΔN [1] was 71.9 µM.

For `CC(=O)Nc1ccc(S(=O)(=O)Nc2ccc([N+](=O)[O-])cc2)cc1` [Compound 7, N-{4-[(4-Nitrophenyl)sulfamoyl]phenyl}acetamide], the IC50 on AiWssI^ΔN [1] worked out at 100 µM.

For the molecule `Cc1nc(N2CCCCC2)sc1/C=N/Nc1ccc(C(=O)O)cc1` [Compound 8, 4-[(2E)-2-{[4-Methyl-2-(piperidin-1-yl)-1,3-thiazol-5-yl]methylidene}hydrazin-1-yl]benzoic acid], the IC50 at AiWssI^ΔN [1] came to 90.3 µM.

As to `O=C[C@H](O)[C@@H](O)[C@H](O[C@@H]1O[C@H](CO)[C@@H](O)[C@H](O)[C@H]1O)[C@H](O)CO` [cellobiose], on AiWssI^ΔN [3], the “Specific activity of AiWssI^ΔN with acceptor relative to no acceptor control” value is “Significant increases in activity”.

Consider `OC[C@H]1O[C@@H](O[C@H]2[C@H](O)[C@@H](O)[C@H](O[C@H]3[C@H](O)[C@@H](O)[C@H](O[C@H]4[C@H](O)[C@@H](O)[C@H](O[C@H]5[C@H](O)[C@@H](O)[C@H](O[C@H]6[C@H](O)[C@@H](O)C(O)O[C@@H]6CO)O[C@@H]5CO)O[C@@H]4CO)O[C@@H]3CO)O[C@@H]2CO)[C@H](O)[C@@H](O)[C@@H]1O` (stereo partly drawn) [cellohexaose], for which, on AiWssI^ΔN [3], the “Increase in AiWssI^ΔN activity versus reaction without celloacceptors” value is 31% and the “Specific activity of AiWssI^ΔN with acceptor relative to no acceptor control” value is listed as “Significant increases in activity”.

Take `OC[C@H]1O[C@@H](O[C@H]2[C@H](O)[C@@H](O)[C@H](O[C@H]3[C@H](O)[C@@H](O)[C@H](O[C@H]4[C@H](O)[C@@H](O)[C@H](O[C@H]5[C@H](O)[C@@H](O)C(O)O[C@@H]5CO)O[C@@H]4CO)O[C@@H]3CO)O[C@@H]2CO)[C@H](O)[C@@H](O)[C@@H]1O` (stereo partly drawn) [cellopentaose]: on AiWssI^ΔN [3], the “Increase in AiWssI^ΔN activity versus reaction without celloacceptors” value stood at 28% and the “Specific activity of AiWssI^ΔN with acceptor relative to no acceptor control” value is on record as “Significant increases in activity”.

On to `OC[C@H]1O[C@@H](O[C@H]2[C@H](O)[C@@H](O)[C@H](O[C@H]3[C@H](O)[C@@H](O)[C@H](O[C@H]4[C@H](O)[C@@H](O)C(O)O[C@@H]4CO)O[C@@H]3CO)O[C@@H]2CO)[C@H](O)[C@@H](O)[C@@H]1O` (stereo partly drawn) [cellotetraose], for which, at AiWssI^ΔN [3], the “Specific activity of AiWssI^ΔN with acceptor relative to no acceptor control” value is “Significant increases in activity”.

For `OC[C@H]1O[C@@H](O[C@H]2[C@H](O)[C@@H](O)[C@H](O[C@H]3[C@H](O)[C@@H](O)C(O)O[C@@H]3CO)O[C@@H]2CO)[C@H](O)[C@@H](O)[C@@H]1O` (stereo partly drawn) [cellotriose], the “Specific activity of AiWssI^ΔN with acceptor relative to no acceptor control” value at AiWssI^ΔN [3] is reported as “Significant increases in activity”.

Turning to AiWssI^ΔN (Achromobacter insuavis), in series [4], the Km was determined as 3850 ± 1070 µM, the turnover number (kcat) came to 0.031 ± 0.0035 s⁻¹ and the kcat/Km was 8 M⁻¹ s⁻¹. For the same molecule, in series [5], the Km was 570 ± 240 µM, the kcat is 0.00258 ± 0.00028 s⁻¹ and the kcat/Km was 4.5 M⁻¹ s⁻¹.

B1: PfWssI^ΔN (Pseudomonas fluorescens) (protein)
chain: GDTGPRVRPGCPGWLFISDELRINRHAEANAQTKAQAVIDLQKQLGQKGIDLQVVVVPDKSRIAAAQRCGLYRPAVLDNRVRDWTAMLQAAGVSALDLTETLKPLGAEAYLRTDTHWSEIGSNAGAKAVAQRTQQRGIKATPEQTFDITQAPLAVRPGDLVRLAGLDWLPPTLQPPGESVAASTTHETGGATSNADDLFGDAGLPNVALIGTSFSRNSNFVGFLQKALNAPVGNFSKDGGEFSGAAKAYFDSPAFKQTPPKLLIWEIPERDLQTPYDVITIGQ
In the case of B1, in series [6], the Km was found to be 2410 ± 770 µM, the turnover number (kcat) is 0.0312 ± 0.0034 s⁻¹ and the kcat/Km is 13 M⁻¹ s⁻¹. Also, in series [7], the Km was 340 ± 100 µM, the kcat was determined as 0.00162 ± 0.00016 s⁻¹ and the kcat/Km amounted to 4.8 M⁻¹ s⁻¹.

(Values after publication PMC10302187, “WssI from the Gram-negative bacterial cellulose synthase is an O-acetyltransferase that acts on cello-oligomers with several acetyl donor substrates” (The Journal of Biological Chemistry, 2023).)
